Test results reported in paper PMC11638965, “Leveraging Dual-Ligase Recruitment to Enhance Protein Degradation via a Heterotrivalent Proteolysis Targeting Chimera” (Journal of the American Chemical Society, 2024).
Like-named read-outs stand apart in the source and are kept apart here.

Tests used:
[1] = target: BRD4 (Homo sapiens, UniProt O60885); assay: Live cell kinetic HiBiT degradation assay, HiBiT-BRD4 HEK293 cells (parental, CRBN KO, VHL KO); type: cell-based; details: for EC50: HiBiT-BRD4 CRISPR knock-in HEK293 cells, live cell kinetic degradation, 24 h, read-out: Dmax 50 BRD4; for λmax BRD4 (degradation rate): HiBiT-BRD4 knock-in HEK293 cells; for fold increase in degradation of BRD4 (Dmax 50) vs matched pair: 23 vs 1, 26 vs 23, 30 vs 2, HiBiT-BRD4 HEK293 cells
Procedure: HEK293 HiBiT-BRD2 (LgBiT stable), HEK293 HiBiT-BRD3 (LgBiT stable), and HEK293 HiBiT-BRD4 (LgBiT stable) were created using CRISPR/Cas9 to insert at HiBiT tag at the N-terminal genomic loci of BRD2, BRD3, or BRD4 in a cell line stably expressing LgBiT protein as described previously.[23]
For kinetic degradation experiments, HEK293 HiBiT-BRD2, 3, or 4 (LgBiT stable) cells and HEK293 HiBiT-BRD4 (LgBiT) CRBN KO and VHL KO cells were plated at 20,000 cells/well in DMEM +10% FBS in white 96-well tissue culture plates and allowed to adhere overnight. The next day, media was removed and 90 μL of prewarmed CO2-independent medium (Gibco) containing Endurazine (Promega) at a 1:100 dilution from stock was added. Plates were incubated at 37 °C for 3 h to allow luminescence to equilibrate. A threefold dilution series of each PROTAC at 10x the desired final concentration was prepared (with the amount of DMSO in each treatment condition kept constant). After luminescence equilibration, a preread luminescence measurement was taken (prior to compound addition) to allow for baseline normalization to account for possible plating differences. Cells were then treated with 10 μL of the prepared PROTAC dilution series (in triplicate or quadruplicate). Treated plates were placed in a GloMax Discover luminometer (Promega) prewarmed to 37 °C and luminescence measurements were obtained every 7 min for 24 h. Kinetic degradation plots were obtained by first normalizing time course luminescence readings in each well to the preread measurement, then to the average value of the DMSO only control at each time point. Data was analyzed using GraphPad Prism (version 8) and excel. Dmax values were identified as the lowest luminescence reading in each well. Rate constant values were calculated using a one phase exponential decay Y = (Y0-Plateau) e(K*^X) + Plateau using Prism (Y0 constrained to 1). Dmax 50 values were calculated by plotting Dmax as a function of concentration, then fitting plots using the following equation: [drawing 1] to determine IC50.
HiBiT-BRD4 (LgBiT stable) HEK293 cells (Promega) were used to generate both VHL KO HiBiT-BRD4 (LgBiT stable) and CRBN KO HiBiT-BRD4 (LgBiT stable) cell lines. For VHL, gRNAs targeting exon 1 ([…]) and exon 2 ([…]) and for CRBN, gRNAs targeting exon 3 ([…]) and exon 6 ([…]) were purchased from IDT DNA (Table 5). For each gRNA, tracrRNA/crRNA duplexes were formed by combining 10 μL of 100 μM Alt-R […] (IDT), 100 μM Alt-R crRNA (IDT) and heating at 95C for 5 min, then were allowed to cool to room temp for 20 min. RNPs were then formed by combining 75 pmol Cas9 (IDT) with 2.4 μL total of prepared tracrRNA/crRNA complex (1.2 μL for each gRNA targeting each exon). Cells were then trypsinized and resuspended at 10,000,000 cells/mL in 1 mL of Mirus Ingenio electroporation solution. Three μL of 100 μM electroporation enhancer (Mirus) was added, along with 3 μL of RNP solution. Cells were electroporated in 2 mm cuvettes using a BioRad system (190 V, 950 μF, infinite resistance) and were then plated in a T75 flask in full growth medium to allow for recovery. After recovery from electroporation, knockout pools were sorted for single cells in 96-well tissue culture treated plates. Clonal populations which expanded from single cells were then screened for loss of function of VHL by treating with MZ1, or loss of function of CRBN by treating with dBET6, using a HiBiT-BRD4 luminescent readout assay. Genomic DNA isolated from candidate clones was then PCR-amplified (Table of primers below), Gibson-assembled into a pF1A plasmid backbone, transformed into E. coli., and then Sanger sequenced to confirm presence of indels in the targeted exons. […] VHL exon 3 carried a 19 bp deletion on one allele, and a 1 bp insertion on the other allele, both occurring after the premature stop codon in exon 1.

[2] = tested on: RKO WT cells; assay: cells; type: cell-based, human; details: Homo sapiens, 316 pM to 10 μM
Procedure: RKO WT, VHL KO, CRBN KO and CRBN/VHL dKO cells were cultured in Dulbecco’s modified Eagle’s medium supplemented with 10% FCS and 1% penicillin–streptomycin. RKO CRBN KO and VHL KO were generated previously.[45] RKO CRBN/VHL dKO cells were generated by transiently expressing pSpCas9(BB)-2A-GFP (PX458) (Addgene 48138) loaded with a short guide RNA (sgRNA) targeting VHL (Fwd: […], Rev: […]) in RKO CRBN KO cells. Clones were single cell seeded and checked for VHL and CRBN double deletion via Western blot or PCR on genomic DNA (gDNA).
Cells were seeded in 96-well plates at a cell density of 3750 cells per well and treated for 3 days with DMSO or drug at ten √10 serial diluted concentrations. […] Cell viability was assessed using the CellTiter-Glo assay (CellTiter-Glo Luminescent Cell Viability Assay, Promega G7573) according to manufacturer instructions. Luminescence signal was measured on a Multilabel Plate Reader Platform Victor X3 model 2030 (PerkinElmer). Survival curves and EC50 values were determined using GraphPad Prism v.10.0.3 by fitting a nonlinear regression to the log10-transformed drug concentration and the relative viability after normalization of each data point to the mean luminescence of the lowest drug concentration.

[3] = WT RKO, n = 3 (Table S4), read-out: EC50 RKO

Compound	EC50 [1]	λmax BRD4 (degradation rate) [1]	EC50 [2, 3]	fold increase in degradation of BRD4 (Dmax 50) vs matched pair [1]	EC50 ([2]; 72 h, 3 days, n = 3 (Figures 5 and 8C, Table S5), read-out: EC50 RKO WT)
Cc1ncsc1-c1ccc(CNC(=O)[C@@H]2C[C@@H](O)CN2C(=O)[C@@H](NC(=O)COCC(C)(COCCOCCOCCOC(=O)C[C@@H]2N=C(c3ccc(Cl)cc3)c3c(sc(C)c3C)-n3c(C)nnc32)COCCOCCOCCN2CCN(c3cccc4c3C(=O)N(C3CCC(=O)NC3=O)C4=O)CC2)C(C)(C)C)cc1 (mixture of isomers) [AB3029 (31), (17S)-11-((2-(2-(2-(4-(2-(2,6-dioxopiperidin-3-yl)-1,3-dioxoisoindolin-4-yl)piperazin-1-yl)ethoxy)ethoxy)ethoxy)methyl)-17-((2S,4R)-4-hydroxy-2-((4-(4-methylthiazol-5-yl)benzyl)carbamoyl)pyrrolidine-1-carbonyl)-11,18,18-trimethyl-15-oxo-3,6,9,13-tetraoxa-16-azanonadecyl 2-((S)-4-(4-chlorophenyl)-2,3,9-trimethyl-6H-thieno[3,2-f][1,2,4]triazolo[4,3-a][1,4]diazepin-6-yl)acetate]	15 nM	1.99 h⁻¹	1020 nM	–	–
Cc1ncsc1-c1ccc(CNC(=O)[C@@H]2C[C@@H](O)CN2C(=O)[C@@H](NC(=O)COCC(C)(COCCOCCOCCOC(=O)C[C@@H]2N=C(c3ccc(Cl)cc3)c3c(sc(C)c3C)-n3c(C)nnc32)COCCOCCOCCN2CCN(c3cc4c(cc3F)C(=O)N(C3CCC(=O)NC3=O)C4=O)CC2)C(C)(C)C)cc1 (mixture of isomers) [AB3030 (32), (17S)-11-((2-(2-(2-(4-(2-(2,6-dioxopiperidin-3-yl)-6-fluoro-1,3-dioxoisoindolin-5-yl)piperazin-1-yl)ethoxy)ethoxy)ethoxy)methyl)-17-((2S,4R)-4-hydroxy-2-((4-(4-methylthiazol-5-yl)benzyl)carbamoyl)pyrrolidine-1-carbonyl)-11,18,18-trimethyl-15-oxo-3,6,9,13-tetraoxa-16-azanonadecyl 2-((S)-4-(4-chlorophenyl)-2,3,9-trimethyl-6H-thieno[3,2-f][1,2,4]triazolo[4,3-a][1,4]diazepin-6-yl)acetate]	7.4 nM	2.19 h⁻¹	402 nM	–	–
Cc1ncsc1-c1ccc(CNC(=O)[C@@H]2C[C@@H](O)CN2C(=O)[C@@H](NC(=O)COCC(C)(COCCOCCOCCNc2cccc3c2C(=O)N(C2CCC(=O)NC2=O)C3=O)COCCOCCOCCOC(=O)C[C@@H]2N=C(c3ccc(Cl)cc3)c3c(sc(C)c3C)-n3c(C)nnc32)C(C)(C)C)cc1 (mixture of isomers) [AB3062 (23), (17S)-11-((2-(2-(2-((2-(2,6-dioxopiperidin-3-yl)-1,3-dioxoisoindolin-4-yl)amino)ethoxy)ethoxy)ethoxy)methyl)-17-((2S,4R)-4-hydroxy-2-((4-(4-methylthiazol-5-yl)benzyl)carbamoyl)pyrrolidine-1-carbonyl)-11,18,18-trimethyl-15-oxo-3,6,9,13-tetraoxa-16-azanonadecyl 2-((S)-4-(4-chlorophenyl)-2,3,9-trimethyl-6H-thieno[3,2-f][1,2,4]triazolo[4,3-a][1,4]diazepin-6-yl)acetate]	11 nM	1.40 h⁻¹	420 nM	3.4 fold	–
Cc1ncsc1-c1ccc(CNC(=O)[C@@H]2C[C@@H](O)CN2C(=O)[C@@H](NC(=O)COCC(C)(COCCOCCOCCNc2cc3c(cc2F)C(=O)N(C2CCC(=O)NC2=O)C3=O)COCCOCCOCCOC(=O)C[C@@H]2N=C(c3ccc(Cl)cc3)c3c(sc(C)c3C)-n3c(C)nnc32)C(C)(C)C)cc1 (mixture of isomers) [AB3063 (26), (17S)-11-((2-(2-(2-((2-(2,6-dioxopiperidin-3-yl)-6-fluoro-1,3-dioxoisoindolin-5-yl)amino)ethoxy)ethoxy)ethoxy)methyl)-17-((2S,4R)-4-hydroxy-2-((4-(4-methylthiazol-5-yl)benzyl)carbamoyl)pyrrolidine-1-carbonyl)-11,18,18-trimethyl-15-oxo-3,6,9,13-tetraoxa-16-azanonadecyl 2-((S)-4-(4-chlorophenyl)-2,3,9-trimethyl-6H-thieno[3,2-f][1,2,4]triazolo[4,3-a][1,4]diazepin-6-yl)acetate]	3 nM	1.98 h⁻¹	165 nM	3.7 fold	260 nM
Cc1ncsc1-c1ccc(CNC(=O)[C@@H]2C[C@@H](O)CN2C(=O)[C@@H](NC(=O)COCC(C)(COCCOCCOCCNc2cccc3c2C(=O)N(C2CCC(=O)NC2=O)C3=O)COCCOCCOC(=O)C[C@@H]2N=C(c3ccc(Cl)cc3)c3c(sc(C)c3C)-n3c(C)nnc32)C(C)(C)C)cc1 (mixture of isomers) [AB3064 (25), (14S)-8-((2-(2-(2-((2-(2,6-dioxopiperidin-3-yl)-1,3-dioxoisoindolin-4-yl)amino)ethoxy)ethoxy)ethoxy)methyl)-14-((2S,4R)-4-hydroxy-2-((4-(4-methylthiazol-5-yl)benzyl)carbamoyl)pyrrolidine-1-carbonyl)-8,15,15-trimethyl-12-oxo-3,6,10-trioxa-13-azahexadecyl 2-((S)-4-(4-chlorophenyl)-2,3,9-trimethyl-6H-thieno[3,2-f][1,2,4]triazolo[4,3-a][1,4]diazepin-6-yl)acetate]	31 nM	1.09 h⁻¹	904 nM	–	–
Cc1ncsc1-c1ccc(CNC(=O)[C@@H]2C[C@@H](O)CN2C(=O)[C@@H](NC(=O)COCC(C)(COCCOCCOCCNc2cc3c(cc2F)C(=O)N(C2CCC(=O)NC2=O)C3=O)COCCOCCOC(=O)C[C@@H]2N=C(c3ccc(Cl)cc3)c3c(sc(C)c3C)-n3c(C)nnc32)C(C)(C)C)cc1 (mixture of isomers) [AB3065 (28), (14S)-8-((2-(2-(2-((2-(2,6-dioxopiperidin-3-yl)-6-fluoro-1,3-dioxoisoindolin-5-yl)amino)ethoxy)ethoxy)ethoxy)methyl)-14-((2S,4R)-4-hydroxy-2-((4-(4-methylthiazol-5-yl)benzyl)carbamoyl)pyrrolidine-1-carbonyl)-8,15,15-trimethyl-12-oxo-3,6,10-trioxa-13-azahexadecyl 2-((S)-4-(4-chlorophenyl)-2,3,9-trimethyl-6H-thieno[3,2-f][1,2,4]triazolo[4,3-a][1,4]diazepin-6-yl)acetate]	2.9 nM	1.51 h⁻¹	214 nM	–	–
